ChEMBL document CHEMBL4673259, “Discovery of isoquinolinone and naphthyridinone-based inhibitors of poly(ADP-ribose) polymerase-1 (PARP1) as anticancer agents: Structure activity relationship and preclinical characterization” (Bioorg Med Chem, 2020)

What was measured:
[1] = molecular target: Poly [ADP-ribose] polymerase 2 (Homo sapiens, UniProt Q9UGN5); assay: Inhibition of N-terminal GST-tagged human PARP2 (2 to 583 residues) expressed in baculovirus infected Sf9 cells using histone mixture (H2A and H2B) and biotinylated NAD+ as substrate in presence of activated DNA incubated for 60 mins by chemiluminescence assay
[2] = molecular target: Poly [ADP-ribose] polymerase 1 (Homo sapiens, UniProt P09874); assay: Inhibition of PARP1 in human MDA-MB-436 cells assessed as inhibition of PARylation at 10 nM incubated for 1 hr by chemiluminescence assay; format: cell-based
[3] = test system: MDA-MB-436; assay: Cytotoxicity against human MDA-MB-436 cells assessed as inhibition of cell viability incubated for 4 days by CellTiterGlo luminescence assay; conditions: MDA-MB-436, 96 h
[4] = test system: MDA-MB-436; assay: Cytotoxicity against human MDA-MB-436 cells assessed as inhibition of cell viability incubated for 14 days with three intermittent intervals by CellTiterGlo luminescence assay; conditions: MDA-MB-436, 336 h
[5] = Tmax in BALB/c mouse at 1 mg/kg, iv measured up to 24 hrs by LC-MS/MS analysis; format: ADME, organism-based; conditions: in vivo
[6] = Tmax in BALB/c mouse at 10 mg/kg, po measured up to 24 hrs by LC-MS/MS analysis; format: ADME, organism-based; conditions: in vivo
[7] = molecular target: CYP1A2 (Homo sapiens, UniProt P05177); assay: Inhibition of CYP1A2 (unknown origin) at 10 uM relative to control; format: ADME
[8] = molecular target: CYP2C19 (Homo sapiens, UniProt P33261); assay: Inhibition of CYP2C19 (unknown origin) at 10 uM relative to control; format: ADME
[9] = molecular target: CYP2E1 (Homo sapiens, UniProt P05181); assay: Inhibition of CYP2E1 (unknown origin) at 10 uM relative to control; format: ADME
[10] = molecular target: CYP3A4 (Homo sapiens, UniProt P08684); assay: Inhibition of CYP3A4 (unknown origin) at 10 uM relative to control; format: ADME
[11] = test system: MDA-MB-436; assay: Anticancer activity against human MDA-MB-436 cells harboring BRCA mutant xenografted in po dosed SCID/nude mouse assessed as tumor growth regression administered bid and measured up to 5 weeks post-drug administration; format: functional, organism-based; conditions: dose 0.015-0.15 mg/kg, time weeks <=5
[12] = test system: MDA-MB-436; assay: Anticancer activity against human MDA-MB-436 cells harboring BRCA mutant xenografted in SCID/nude mouse assessed as tumor growth regression at 0.015 mg/kg, po bid and measured up to 5 weeks post-drug administration; format: functional; conditions: MDA-MB-436, po, 840 h, time weeks <=5
[13] = test system: SK-ES1; assay: Potentiation of anticancer activity against human SK-ES-1 cells harboring EWSF1 translocation xenografted in SCID/nude mouse assessed as tumor growth inhibition at 0.15 mg/kg, po bid for 12 days co-administered with TMZ measured up to 9 weeks post drug administration; format: functional; conditions: 288 h, time 12 day
[14] = test system: CAPAN-1; assay: Antitumor activity against human CAPAN1 cells xenografted in SCID/nude mouse assessed as tumor growth inhibition at 0.1 mg/kg, po bid measured up to 5 weeks post drug administration; format: functional; conditions: CAPAN-1, po, 840 h, time weeks <=5
[15] = test system: CAPAN-1; assay: Antitumor activity against human CAPAN1 cells xenografted in SCID/nude mouse assessed as tumor growth inhibition at 0.3 mg/kg, po bid measured up to 5 weeks post drug administration; format: functional; conditions: CAPAN-1, po, 840 h, time weeks <=5
[16] = molecular target: Protein mono-ADP-ribosyltransferase PARP3 (Homo sapiens, UniProt Q9Y6F1); assay: Inhibition of PARP3 (unknown origin)
[17] = Toxicity in rat assessed as NOAEL; conditions: in vivo

Chain of CYP2C19 (P33261 whole entry): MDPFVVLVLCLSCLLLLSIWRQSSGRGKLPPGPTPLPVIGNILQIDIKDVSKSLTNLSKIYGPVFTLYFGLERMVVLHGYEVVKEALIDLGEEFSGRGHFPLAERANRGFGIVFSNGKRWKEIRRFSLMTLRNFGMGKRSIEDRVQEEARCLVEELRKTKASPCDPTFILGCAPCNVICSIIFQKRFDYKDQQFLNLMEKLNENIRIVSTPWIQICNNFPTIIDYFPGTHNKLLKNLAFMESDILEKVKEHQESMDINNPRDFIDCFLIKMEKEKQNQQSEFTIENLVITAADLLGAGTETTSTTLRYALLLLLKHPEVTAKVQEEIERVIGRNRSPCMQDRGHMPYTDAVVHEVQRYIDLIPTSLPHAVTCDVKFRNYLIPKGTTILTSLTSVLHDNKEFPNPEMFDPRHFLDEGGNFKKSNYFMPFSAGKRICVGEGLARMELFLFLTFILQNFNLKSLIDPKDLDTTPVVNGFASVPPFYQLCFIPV
Chain of CYP2E1 (P05181 whole entry): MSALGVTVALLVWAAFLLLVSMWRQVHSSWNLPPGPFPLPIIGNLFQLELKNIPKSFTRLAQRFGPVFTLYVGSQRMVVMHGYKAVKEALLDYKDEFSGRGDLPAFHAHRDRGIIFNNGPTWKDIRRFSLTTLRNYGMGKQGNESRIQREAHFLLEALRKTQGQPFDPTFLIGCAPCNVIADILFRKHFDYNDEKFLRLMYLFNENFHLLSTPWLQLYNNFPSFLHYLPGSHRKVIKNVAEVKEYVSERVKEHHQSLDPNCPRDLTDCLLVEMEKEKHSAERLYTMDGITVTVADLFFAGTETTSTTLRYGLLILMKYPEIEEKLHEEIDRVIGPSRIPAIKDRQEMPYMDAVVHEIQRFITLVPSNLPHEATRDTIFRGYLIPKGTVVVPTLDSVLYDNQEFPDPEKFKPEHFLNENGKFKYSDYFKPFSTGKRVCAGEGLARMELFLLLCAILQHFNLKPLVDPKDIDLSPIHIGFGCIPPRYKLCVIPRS
Chain of CYP3A4 (P08684 whole entry): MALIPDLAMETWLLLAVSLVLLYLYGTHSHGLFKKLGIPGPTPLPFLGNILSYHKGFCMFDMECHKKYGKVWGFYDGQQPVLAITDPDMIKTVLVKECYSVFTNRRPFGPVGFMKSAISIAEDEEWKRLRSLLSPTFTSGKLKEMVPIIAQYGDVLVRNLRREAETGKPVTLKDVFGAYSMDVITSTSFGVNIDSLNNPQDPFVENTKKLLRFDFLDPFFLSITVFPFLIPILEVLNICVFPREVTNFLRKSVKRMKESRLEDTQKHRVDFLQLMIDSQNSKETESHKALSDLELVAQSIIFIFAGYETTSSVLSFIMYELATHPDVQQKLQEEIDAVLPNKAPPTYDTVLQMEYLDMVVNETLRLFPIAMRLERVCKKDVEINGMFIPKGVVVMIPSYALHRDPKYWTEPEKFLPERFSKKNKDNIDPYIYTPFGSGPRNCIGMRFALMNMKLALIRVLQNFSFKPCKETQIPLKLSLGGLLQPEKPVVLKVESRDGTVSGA
Chain of Protein mono-ADP-ribosyltransferase PARP3 (Q9Y6F1 whole entry): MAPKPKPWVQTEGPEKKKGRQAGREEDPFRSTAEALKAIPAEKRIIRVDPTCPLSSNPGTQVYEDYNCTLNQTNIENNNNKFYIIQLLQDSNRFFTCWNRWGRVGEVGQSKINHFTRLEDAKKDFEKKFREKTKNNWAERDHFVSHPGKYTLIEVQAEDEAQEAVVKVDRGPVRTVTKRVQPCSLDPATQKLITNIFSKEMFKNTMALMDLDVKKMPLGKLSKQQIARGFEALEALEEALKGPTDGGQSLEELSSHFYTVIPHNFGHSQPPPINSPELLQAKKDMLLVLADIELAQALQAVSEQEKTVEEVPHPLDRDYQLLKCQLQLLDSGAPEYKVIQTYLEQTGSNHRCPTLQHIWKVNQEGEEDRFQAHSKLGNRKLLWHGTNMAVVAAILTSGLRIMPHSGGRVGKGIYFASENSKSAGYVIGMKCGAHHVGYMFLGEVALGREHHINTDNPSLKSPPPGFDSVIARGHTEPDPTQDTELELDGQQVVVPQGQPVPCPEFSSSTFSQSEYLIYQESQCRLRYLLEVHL
Chain of Poly [ADP-ribose] polymerase 1 (P09874 whole entry): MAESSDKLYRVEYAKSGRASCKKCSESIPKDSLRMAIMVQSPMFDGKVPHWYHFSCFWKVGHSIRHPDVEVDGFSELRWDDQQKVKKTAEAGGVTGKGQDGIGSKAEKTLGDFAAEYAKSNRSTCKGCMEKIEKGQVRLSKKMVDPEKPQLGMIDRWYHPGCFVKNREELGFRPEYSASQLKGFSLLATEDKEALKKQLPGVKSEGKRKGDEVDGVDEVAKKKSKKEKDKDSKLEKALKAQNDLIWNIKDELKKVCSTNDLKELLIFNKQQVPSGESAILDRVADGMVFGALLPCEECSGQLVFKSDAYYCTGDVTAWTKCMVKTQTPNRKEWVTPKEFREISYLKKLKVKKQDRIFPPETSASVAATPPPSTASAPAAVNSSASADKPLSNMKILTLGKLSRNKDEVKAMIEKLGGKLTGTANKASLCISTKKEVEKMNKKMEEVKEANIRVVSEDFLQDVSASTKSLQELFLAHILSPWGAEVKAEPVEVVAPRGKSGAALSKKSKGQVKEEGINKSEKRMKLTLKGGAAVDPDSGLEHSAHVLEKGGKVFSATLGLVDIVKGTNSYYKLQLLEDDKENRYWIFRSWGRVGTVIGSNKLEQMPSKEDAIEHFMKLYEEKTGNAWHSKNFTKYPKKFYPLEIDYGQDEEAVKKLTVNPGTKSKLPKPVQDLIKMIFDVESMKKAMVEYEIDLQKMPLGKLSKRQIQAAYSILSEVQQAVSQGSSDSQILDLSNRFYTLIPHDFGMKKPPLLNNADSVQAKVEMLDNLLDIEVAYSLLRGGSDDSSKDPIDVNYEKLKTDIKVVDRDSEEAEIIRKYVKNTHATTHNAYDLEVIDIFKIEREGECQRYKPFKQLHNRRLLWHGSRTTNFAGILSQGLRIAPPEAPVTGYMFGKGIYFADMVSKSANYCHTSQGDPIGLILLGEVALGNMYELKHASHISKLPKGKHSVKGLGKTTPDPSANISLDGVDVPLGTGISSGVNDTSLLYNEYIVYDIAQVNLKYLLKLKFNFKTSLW
Chain of Poly [ADP-ribose] polymerase 2 (Q9UGN5 whole entry, the tested form may be a part): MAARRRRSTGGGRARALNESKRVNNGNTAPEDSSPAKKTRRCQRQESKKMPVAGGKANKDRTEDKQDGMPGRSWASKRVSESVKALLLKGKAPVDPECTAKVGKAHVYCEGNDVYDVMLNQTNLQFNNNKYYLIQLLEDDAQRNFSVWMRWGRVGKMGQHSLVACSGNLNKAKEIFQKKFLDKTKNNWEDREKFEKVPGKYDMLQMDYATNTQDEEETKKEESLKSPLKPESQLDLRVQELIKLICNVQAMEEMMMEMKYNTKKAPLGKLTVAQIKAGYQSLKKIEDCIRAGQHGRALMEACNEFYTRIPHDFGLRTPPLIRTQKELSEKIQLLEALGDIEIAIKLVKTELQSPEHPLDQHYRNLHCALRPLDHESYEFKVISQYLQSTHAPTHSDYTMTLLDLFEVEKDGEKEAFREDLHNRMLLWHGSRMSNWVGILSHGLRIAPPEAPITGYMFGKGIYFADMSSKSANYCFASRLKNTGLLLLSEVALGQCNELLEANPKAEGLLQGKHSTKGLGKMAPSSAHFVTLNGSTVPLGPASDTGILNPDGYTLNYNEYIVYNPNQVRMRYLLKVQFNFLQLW
Chain of CYP1A2 (P05177 whole entry): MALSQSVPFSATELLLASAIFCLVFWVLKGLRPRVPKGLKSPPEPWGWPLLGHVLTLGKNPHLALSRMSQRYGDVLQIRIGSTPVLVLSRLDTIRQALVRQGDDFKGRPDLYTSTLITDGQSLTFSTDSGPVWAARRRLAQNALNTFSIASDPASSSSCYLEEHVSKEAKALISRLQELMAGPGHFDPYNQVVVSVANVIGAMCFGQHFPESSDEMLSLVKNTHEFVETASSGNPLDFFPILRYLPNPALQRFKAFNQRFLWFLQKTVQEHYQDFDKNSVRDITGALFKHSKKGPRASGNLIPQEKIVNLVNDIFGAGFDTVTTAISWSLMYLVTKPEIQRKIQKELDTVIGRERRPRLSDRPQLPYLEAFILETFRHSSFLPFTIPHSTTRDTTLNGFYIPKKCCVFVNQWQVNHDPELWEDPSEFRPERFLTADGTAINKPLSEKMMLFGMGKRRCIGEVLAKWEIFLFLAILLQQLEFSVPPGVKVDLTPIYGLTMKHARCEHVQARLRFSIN

IC50 [1]: 8.1 nM | inhibition [2]: 82% | Tmax [5]: 4.8 min | Tmax [6]: 1 h | inhibition at 10 µM [7]: ≤ 23% | inhibition at 10 µM [8]: ≤ 23% | inhibition at 10 µM [9]: ≤ 23% | inhibition at 10 µM [10]: ≤ 23% | IC50 [16]: 8 µM
Compound: N#Cc1ccc(N2CCN([C@H]3C=C(c4cc5ncccc5c(=O)[nH]4)CC3)CC2)cc1
IC50 [3]: 0.035 nM | IC50 [4]: 0.8 pM | Activity [11]: Dose-dependent effect | inhibition in vivo at 0.015 mg/kg [12]: 50% | inhibition in vivo at 0.15 mg/kg [13]: 89% | inhibition in vivo at 0.1 mg/kg [14]: 46.1% | inhibition in vivo at 0.3 mg/kg [15]: 49.6% | NOAEL [17]: 15 mg/kg/day
